Biological target: T1, HIV-1 protease (wild type) (Human immunodeficiency virus type 1 group M subtype B, UniProt P04585)
T1 construct: made in house; host or cells: Escherichia coli
Assay: Protease Inhibition Assay (Pepcleave), inhibition of microbial expressed HIV protease
Format: biochemical
Settings: wild-type HIV-1 protease; mean of at least two independent experiments; read-out: Pepcleave Enzyme inhibition IC50
Protocol: Assay for Inhibition of Microbial Expressed HIV Protease
Inhibition studies of the reaction of the protease (which was expressed in Eschericia coli) with a peptide substrate [Val-Ser-Gln-Asn-(betanaphtyl)Ala-Pro-Ile-Val]. The inhibitor is first preincubated with the HIV-1 protease (wild type) enzyme in assay buffer (50 mM sodium acetate, pH 5.5, 100 mM NaCl, and 0.1% BSA) for 30 minutes at room temperature. Substrate is added to 400 micromolar in a total volume of 80 microliters containing 10 picomolar HIV-1 protease and the reaction is incubated for 1 hour at 30° C. The reaction is quenched with the addition of 120 microliters of 10% phosphoric acid. The product formation is determined after separation of product and substrate on a Zorbax Eclipse XDB-C18 column connected to an Agilent 1100 high performance liquid chromatography system with fluorescence detection (excitation 270 nanometer and emission 330 nanometer). Alternatively, the inhibitor is preincubated with enzyme and substrate as described above, but in a total volume of 20 microliters containing 20 picomolar HIV-1 protease and the reaction is incubated for 1 hour at 30° C. The reaction is quenched with the addition of 30 microliters of 1 micromolar indinavir (indinavir is also used as an internal standard), and the product formation is determined after separation of product and substrate on a Zorbax Eclipse XDB-C18 column connected to an API 4000 mass spectrometer (Applied Biosystems) with multiple reaction monitoring (transitions were 644.5/428.9 and 615.4/422.2 (M1/M3) for product and indinavir respectively). The extent of inhibition of the reaction is determined from the peak area of the products. HPLC of the products, independently synthesized, provided quantitation standards and confirmation of the product composition.
Protease Inhibition Assay (“Pepcleave”) data were collected based on the wild-type HIV-1 protease enzyme. The assay monitors the cleavage of a 8-mer peptide (VSQN[β-Nal]PIV) where the tyrosine at P1 position is replaced by β-Naphthyl-alanine. Upon cleavage of the peptide by HIV-1 protease, the product is separated from substrate by HPLC column and detected at Ex.=270 nm/Em=330 nm.

Row | Structure (SMILES) | IC50 [nM]
1 | COC(=O)N[C@H](C(=O)Nc1ccccc1CC[C@@H](CO)N(CC(C)C)S(=O)(=O)c1ccc2ncsc2c1)C(c1ccccc1)c1ccccc1 [Example 7, N-(2-{(3S)-3-[(1,3-benzothiazol-6-ylsulfonyl)(2-methylpropyl)amino]-4-hydroxybutyl}phenyl)-Nα-(methoxycarbonyl)-β-phenyl-L-phenylalaninamide] | 1.6
2 | COC(=O)N[C@@H](Cc1ccccc1Cl)C(=O)Nc1ccccc1CC[C@@H](CO)N(CCC(C)C)S(=O)(=O)c1ccc2ncsc2c1 [Example 16, N-(2-{(3S)-3-[(1,3-benzothiazol-6-ylsulfonyl)(3-methylbutyl)amino]-4-hydroxybutyl}phenyl)-2-chloro-Nα-(methoxycarbonyl)-L-phenylalaninamide] | 8.1
3 | COC(=O)N[C@@H](Cc1ccccc1Cl)C(=O)Nc1ccccc1CC[C@@H](CO)N(Cc1cn(C)nc1C)S(=O)(=O)c1ccc2ncsc2c1 [Example 17, N-{2-[(3S)-3-{(1,3-benzothiazol-6-ylsulfonyl)[(1,3-dimethyl-1H-pyrazol-4-yl)methyl]amino}-4-hydroxybutyl]phenyl}-2-chloro-Nα-(methoxycarbonyl)-L-phenylalaninamide] | 10
4 | [2H]C([2H])(c1ccccc1NC(=O)[C@@H](NC(=O)OC)C(c1ccccc1)c1ccccc1)C([2H])([2H])[C@@H](CO)N(CC(C)C)S(=O)(=O)c1ccc2ncsc2c1 [Example 21, N-(2-{(3S)-3-[(1,3-benzothiazol-6-ylsulfonyl)(2-methylpropyl)amino]-1-d2-2-d2-4-hydroxybutyl}phenyl)-Nα-(methoxycarbonyl)-β-phenyl-L-phenylalaninamide] | 3.7
5 | [2H]C([2H])([2H])C([2H])(C([2H])([2H])[2H])C([2H])([2H])N([C@H](CO)C([2H])([2H])C([2H])([2H])c1ccccc1NC(=O)[C@@H](NC(=O)OC)C(c1ccccc1)c1ccccc1)S(=O)(=O)c1ccc2ncsc2c1 [Example 22, N-(2-{(3S)-3-[(1,3-benzothiazol-6-ylsulfonyl)(2-methylpropyl-d7)amino]-1-d2-2-d2-4-hydroxybutyl}phenyl)-Nα-(methoxycarbonyl)-β-phenyl-L-phenylalaninamide] | 1.7
6 | [2H]C([2H])([2H])C([2H])([2H])N([C@H](CO)Cc1cccc(NC(=O)[C@@H](NC(=O)OC)C(c2ccccc2)c2ccccc2)c1)S(=O)(=O)c1ccc(N)cc1 [Example 33, N-{3-[(2S)-2-{[(4-aminophenyl)sulfonyl](ethyl-d5)amino}-3-hydroxypropyl]phenyl}-Nα-(methoxycarbonyl)-β-phenyl-L-phenylalaninamide] | 50.2
7 | COC(=O)N[C@H](C(=O)Nc1cccc(C[C@@H](CO)N(C(C)C)S(=O)(=O)c2ccc(N)cc2)c1)C(c1ccccc1)c1ccccc1 [Example 34, N-{3-[(2S)-2-{[(4-aminophenyl)sulfonyl](propan-2-yl)amino}-3-hydroxypropyl)phenyl}-Nα-(methoxycarbonyl)-β-phenyl-L-phenylalaninamide] | 41.6
8 | COC(=O)N[C@H](C(=O)Nc1cccc(C[C@@H](CO)N(C(C)C)S(=O)(=O)c2ccc(CO)cc2)c1)C(c1ccccc1)c1ccccc1 [Example 35, N-(3-{(2S)-3-hydroxy-2[{[4-(hydroxymethyl)phenyl]sulfonyl}(propan-2-yl)amino]propyl}phenyl)-Nα-(methoxycarbonyl)-β-phenyl-L-phenylalaninamide] | 18.9

Source: US9187415B2, “Sulfonamides as HIV protease inhibitors” (Merck Canada Inc., priority 2010, dated 2015)
